Molecules are shown by their SMILES. Counter-ions that a name gives are not always drawn. A value given as a limit tells only on which side of the number the result lay.

As a reminder, the IC50 is the concentration needed to halve the response being measured.

The target of the experiment is PAPD5 enzyme (Homo sapiens, UniProt Q8NDF8). The experiment can be described thus: PAPD5 assay (AMP incorporation onto 3'-terminus of RNA substrate, fluorescence quench). The experiment is classed as biochemical. The settings on record: PAPD5 protein 0.3 nM, ATP 50 μM, 30 minutes preincubation, room temperature; read-out: Potency PAPD5 IC50. Here is the method: The purpose of the PAPD5 assay is to determine compound potency against PAPD5 enzyme through the measurement of IC50. Compound inhibition is measured as a function of AMP incorporation onto the 3′-terminus of an RNA substrate in the presence of active PAPD5, ATP, and inhibitor. The PAPD5 assay was done in a black, non-binding, 384 well plate (Corning #3575). All steps were performed at room temperature. For a typical assay, a 40 ul aliquot of assay buffer (50 mM HEPES pH 7.3, 20 mM KCl, 10 mM MgCl2, 10 mMM DTT, 0.01% Triton X-100, 40 U/ml RNAsin (Promega)) containing PAPD5 protein (final 10 concentration: 0.3 nM) and ATP (final concentration 50 μM) was added to each well. Next, 1 ul of compound in 100% DMSO is transferred from a compound dilution plate in which the compound is serially diluted. The plate was placed on a plate shaker for 30 seconds to produce mixing, then incubated for 30 minutes. Next, 10 ul of a 5× mix of RNA substrate (5′-fluorescein-AUAGAG-3′ (IDT)) and a DNA oligonucleotide that is complementary to the AMP modified RNA product (5′-TCTCTATT-3′-TAMRA, wherein the first two nucleotides are locked nucleic acids (IDT)) was added (final concentrations: 5 nM and 20 nM, respectively). The plate was placed on a plate shaker for 30 seconds to produce mixing then immediately placed in a Biotek Cytation 5 plate reader, and the time-dependent decrease in fluorescein fluorescence resulting from annealing of the TAMRA labeled quenching probe was recorded, using the kinetics mode of the reader (typical run time is 90 minutes). Reaction rates were obtained using linear fits to the early portion of progress curves. IC50 values were calculated using a four-parameter fit with 100% enzyme activity determined from the DMSO control and 0% activity from control samples lacking UTP.
Sequence of PAPD5 enzyme (Q8NDF8 whole entry): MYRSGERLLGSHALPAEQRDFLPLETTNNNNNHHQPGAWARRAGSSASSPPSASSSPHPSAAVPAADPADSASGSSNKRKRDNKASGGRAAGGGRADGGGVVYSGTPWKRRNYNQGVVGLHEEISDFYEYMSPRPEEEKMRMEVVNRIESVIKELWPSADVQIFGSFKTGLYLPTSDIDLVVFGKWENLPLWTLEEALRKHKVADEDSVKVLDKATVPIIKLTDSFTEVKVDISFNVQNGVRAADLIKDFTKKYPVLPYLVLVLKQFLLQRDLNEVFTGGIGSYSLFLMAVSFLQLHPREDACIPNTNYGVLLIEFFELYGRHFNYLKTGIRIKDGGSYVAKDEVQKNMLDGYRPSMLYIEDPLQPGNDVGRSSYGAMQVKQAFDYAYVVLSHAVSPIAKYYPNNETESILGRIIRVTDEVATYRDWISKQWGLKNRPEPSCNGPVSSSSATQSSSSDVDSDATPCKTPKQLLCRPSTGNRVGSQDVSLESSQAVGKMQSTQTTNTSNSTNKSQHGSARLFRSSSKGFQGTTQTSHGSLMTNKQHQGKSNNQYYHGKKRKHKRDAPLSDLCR
“+” represents an IC50 value that is greater than 50 PM; “++” represents an IC50 value that is greater than 10 μM and equal to or less than 50 μM; “+++” represents an IC50 value that is greater than 1 μM and equal to or less than 10 μM; and “++++” represents an IC50 value that is equal to or less than 1 μM.
Regarding `Cc1cc(N)ncc1-n1cc(C(=O)O)c(=O)c2cc(Cl)c(-n3ccc(N)n3)nc21` [Example 147, 7-(3-amino-1H-pyrazol-1-yl)-1-(6-amino-4-methylpyridin-3-yl)-6-chloro-4-oxo-1,4-dihydro-1,8-naphthyridine-3-carboxylic acid], the IC50 was at most 1000 nM. With `COCCCN(C)c1cc2c(cc1Cl)c(=O)c(C(=O)O)cn2-c1cnc(N)cc1C` [Example 133, 1-(6-amino-4-methylpyridin-3-yl)-6-chloro-7-((3-methoxypropyl)(methyl)amino)-4-oxo-1,4-dihydroquinoline-3-carboxylic acid], the IC50 is at most 1000 nM. In the case of `O=C(O)c1cn(-c2ccc(O)cc2F)c2cc(-n3ccc(Cl)n3)c(F)cc2c1=O` [Example 12, 7-(3-chloro-1H-pyrazol-1-yl)-6-fluoro-1-(2-fluoro-4-hydroxyphenyl)-4-oxo-1,4-dihydroquinoline-3-carboxylic acid], the IC50 is at most 1000 nM. For the compound `O=C(O)c1cn(CC2CCNCC2)c2cc(N3Cc4cccnc4C3)c(Cl)cc2c1=O` [Example 119, 6-chloro-7-(5,7-dihydro-6H-pyrrolo[3,4-b]pyridin-6-yl)-4-oxo-1-(piperidin-4-ylmethyl)-1,4-dihydroquinoline-3-carboxylic acid hydrochloride], the IC50 is at most 1000 nM. With `COc1ccc(Cn2cc(C(=O)O)c(=O)c3cc(Cl)c(N4Cc5cccnc5C4)nc32)cc1` [Example 44, 6-chloro-7-(5,7-dihydro-6H-pyrrolo[3,4-b]pyridin-6-yl)-1-(4-methoxybenzyl)-4-oxo-1,4-dihydro-1,8-naphthyridine-3-carboxylic acid], the concentration for half-maximal inhibition (IC50) is at most 1000 nM. `O=C(O)c1cn(-c2ccc(O)cc2F)c2cc(-n3ncc4cc(Cl)cc(Cl)c43)c(F)cc2c1=O` [Example 10, 7-(5,7-dichloro-1H-indazol-1-yl)-6-fluoro-1-(2-fluoro-4-hydroxyphenyl)-4-oxo-1,4-dihydroquinoline-3-carboxylic acid]: the IC50 is at most 1000 nM. For `CC1(Cn2cc(C(=O)O)c(=O)c3cc(Cl)c(N4Cc5cccnc5C4)nc32)CCC1` [Example 61, 6-chloro-7-(5,7-dihydro-6H-pyrrolo[3,4-b]pyridin-6-yl)-1-((1-methylcyclobutyl)methyl)-4-oxo-1,4-dihydro-1,8-naphthyridine-3-carboxylic acid] the value was at most 1000 nM. For `Cc1cc(NC(=O)OC(C)(C)C)ncc1-n1cc(C(=O)O)c(=O)c2cc(Cl)c(N3Cc4cccnc4C3)cc21` [Example 4, 1-(6-{[(tert-butoxy)carbonyl]amino}-4-methylpyridin-3-yl)-6-chloro-4-oxo-7-{5H,6H,7H-pyrrolo[3,4-b]pyridin-6-yl}-1,4-dihydroquinoline-3-carboxylic acid] the value was at most 1000 nM; for `CN1CCC(Cn2cc(C(=O)O)c(=O)c3cc(Cl)c(N4Cc5cccnc5C4)cc32)CC1` [Example 120, 6-chloro-7-(5,7-dihydro-6H-pyrrolo[3,4-b]pyridin-6-yl)-1-((1-methylpiperidin-4-yl)methyl)-4-oxo-1,4-dihydroquinoline-3-carboxylic acid], at most 1000 nM; for `CCOC(=O)c1cn(-c2ccc(O)nc2)c2cc(N3Cc4cccnc4C3)c(Cl)cc2c1=O` [Example 88, Ethyl 6-chloro-1-(6-hydroxypyridin-3-yl)-4-oxo-7-{5H,7H-pyrrolo[3,4-b]pyridin-6-yl}quinoline-3-carboxylate], at most 1000 nM. Regarding `COc1ccc(-c2ccn(-c3cc4c(cc3F)c(=O)c(C(=O)O)cn4-c3ccc(O)cc3F)n2)cc1` [Example 39, 6-fluoro-1-(2-fluoro-4-hydroxyphenyl)-7-(3-(4-methoxyphenyl)-1H-pyrazol-1-yl)-4-oxo-1,4-dihydroquinoline-3-carboxylic acid], the IC50 was at most 1000 nM. For `COc1cccc(Cn2cc(C(=O)O)c(=O)c3cc(Cl)c(N4Cc5cccnc5C4)nc32)c1` [Example 42, 6-chloro-7-(5,7-dihydro-6H-pyrrolo[3,4-b]pyridin-6-yl)-1-(3-methoxybenzyl)-4-oxo-1,4-dihydro-1,8-naphthyridine-3-carboxylic acid] the value was at most 1000 nM.

For the origin of these results see US20240376100A1 (Redona Therapeutics, Inc., priority 2021, published 2024).
